The values below are quoted from earlier work in patent publication US20060135540A1, “PPAR active compounds” (priority 2004, published 2006).

One series deals with T1, murine PPARα (Mus musculus, UniProt P23204).
T1 sequence (P23204 1-468): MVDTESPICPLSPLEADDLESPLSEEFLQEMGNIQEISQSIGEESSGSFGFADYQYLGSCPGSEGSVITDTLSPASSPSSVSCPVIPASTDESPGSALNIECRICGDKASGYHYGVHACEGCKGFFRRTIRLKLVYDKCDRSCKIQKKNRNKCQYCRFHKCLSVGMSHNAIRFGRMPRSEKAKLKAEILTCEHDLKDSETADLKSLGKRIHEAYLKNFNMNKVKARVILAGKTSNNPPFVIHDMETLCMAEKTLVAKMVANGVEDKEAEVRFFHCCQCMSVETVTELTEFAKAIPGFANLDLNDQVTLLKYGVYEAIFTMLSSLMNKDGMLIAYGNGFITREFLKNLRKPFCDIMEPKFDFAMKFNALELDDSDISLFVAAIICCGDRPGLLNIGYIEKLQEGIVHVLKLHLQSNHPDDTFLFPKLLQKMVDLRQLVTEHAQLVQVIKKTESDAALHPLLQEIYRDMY

Another series addresses T2, PPARδ (Homo sapiens, UniProt Q03181).
T2 sequence (Q03181 1-441): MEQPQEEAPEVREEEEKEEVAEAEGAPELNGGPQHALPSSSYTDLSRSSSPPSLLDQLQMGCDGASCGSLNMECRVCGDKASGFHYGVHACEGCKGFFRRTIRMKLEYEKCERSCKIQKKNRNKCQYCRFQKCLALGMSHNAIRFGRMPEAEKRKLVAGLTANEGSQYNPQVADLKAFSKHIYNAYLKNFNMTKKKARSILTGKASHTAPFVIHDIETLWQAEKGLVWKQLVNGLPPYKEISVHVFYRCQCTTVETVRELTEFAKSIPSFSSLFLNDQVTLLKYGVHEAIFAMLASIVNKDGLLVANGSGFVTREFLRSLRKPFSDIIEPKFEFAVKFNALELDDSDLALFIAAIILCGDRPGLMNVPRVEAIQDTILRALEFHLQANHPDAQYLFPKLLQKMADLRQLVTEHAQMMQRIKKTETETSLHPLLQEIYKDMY

For series [1] the following is noted: patients, large prospective trial.

Regarding `CCCc1c(OCCCOc2ccc(OCC(=O)O)cc2)ccc(C(C)=O)c1O` [Compound L-165041], the “activity on murine PPARα” value on murine PPARα was “inactive”. Also, at PPARδ, the “agonist selectivity for PPARδ over PPARγ” value is “approximately 30 fold”.

Consider `Cc1ccc(C)c(OCCCC(C)(C)C(=O)O)c1` [gemfibrozil], for which the “reduction in cardiovascular events or death” value in series [1] is on record as 22%.
